Data: the NIST ThermoML archive (doi:10.1016/j.jct.2019.06.014)
Numbers after ± are expanded uncertainties.

Conditions: 101.33 kPa, Liquid, transient hot wire

CCOC(=O)CC [ethyl propanoate]
Conditions | thermal conductivity [W/m/K]
263.55 K | 0.1547 ± 0.0062
268.41 K | 0.1531 ± 0.0062
270.94 K | 0.152 ± 0.0061
278.51 K | 0.1474 ± 0.0059
283.51 K | 0.1447 ± 0.0058
288.56 K | 0.143 ± 0.0058
293.54 K | 0.1408 ± 0.0057
296.36 K | 0.1404 ± 0.0057
301.4 K | 0.1384 ± 0.0056
306.51 K | 0.1365 ± 0.0055
311.34 K | 0.1348 ± 0.0054
316.45 K | 0.1332 ± 0.0054
321.47 K | 0.1314 ± 0.0053
326.44 K | 0.13 ± 0.0052
331.53 K | 0.128 ± 0.0052
336.4 K | 0.1264 ± 0.0051
341.36 K | 0.125 ± 0.005
346.42 K | 0.1231 ± 0.005
351.35 K | 0.1219 ± 0.0049
356.28 K | 0.1208 ± 0.0049

CCO [ethanol]
Conditions | thermal conductivity [W/m/K]
276.51 K | 0.1719 ± 0.0072
287.55 K | 0.1677 ± 0.0071
297.25 K | 0.1645 ± 0.0069
307.16 K | 0.1617 ± 0.0068

CCCC(=O)OCC [ethyl butanoate]
Conditions | thermal conductivity [W/m/K]
268.57 K | 0.1471 ± 0.0059
273.61 K | 0.1446 ± 0.0058
278.63 K | 0.1423 ± 0.0057
283.58 K | 0.1408 ± 0.0057
288.65 K | 0.1385 ± 0.0056
293.58 K | 0.1374 ± 0.0055
298.53 K | 0.1357 ± 0.0055
303.56 K | 0.1339 ± 0.0054
308.67 K | 0.132 ± 0.0053
313.49 K | 0.1311 ± 0.0053
318.61 K | 0.1293 ± 0.0052
323.42 K | 0.1282 ± 0.0052
328.48 K | 0.1264 ± 0.0051
333.46 K | 0.1249 ± 0.005
338.5 K | 0.1234 ± 0.005
343.51 K | 0.1214 ± 0.0049
348.54 K | 0.12 ± 0.0048
353.36 K | 0.1192 ± 0.0048
358.57 K | 0.1173 ± 0.0047
363.52 K | 0.1163 ± 0.0047

CCCCCC(=O)OCC [ethyl hexanoate]
Conditions | thermal conductivity [W/m/K]
254.29 K | 0.1474 ± 0.0059
264.08 K | 0.1447 ± 0.0058
274.02 K | 0.1429 ± 0.0058
283.95 K | 0.1398 ± 0.0056
293.74 K | 0.1375 ± 0.0055
303.7 K | 0.1353 ± 0.0054
313.76 K | 0.1323 ± 0.0053
323.67 K | 0.13 ± 0.0052
333.63 K | 0.1268 ± 0.0051
343.56 K | 0.1242 ± 0.005
353.55 K | 0.1216 ± 0.0049
363.41 K | 0.1191 ± 0.0048
373.4 K | 0.1172 ± 0.0047
383.37 K | 0.1153 ± 0.0046

CCCCC(=O)OCC [ethyl pentanoate]
Conditions | thermal conductivity [W/m/K]
249.21 K | 0.1501 ± 0.006
263.9 K | 0.1458 ± 0.0059
273.5 K | 0.1433 ± 0.0058
283.8 K | 0.1396 ± 0.0056
288.74 K | 0.1389 ± 0.0056
289.42 K | 0.1377 ± 0.0055
293.69 K | 0.1369 ± 0.0055
298.79 K | 0.1357 ± 0.0055
303.69 K | 0.1344 ± 0.0054
308.61 K | 0.1328 ± 0.0053
313.74 K | 0.1314 ± 0.0053
318.49 K | 0.1301 ± 0.0052
323.74 K | 0.1282 ± 0.0052
328.62 K | 0.1268 ± 0.0051
333.51 K | 0.1256 ± 0.0051
338.47 K | 0.1241 ± 0.005
343.55 K | 0.1228 ± 0.0049
348.55 K | 0.1216 ± 0.0049
353.49 K | 0.1201 ± 0.0048
358.46 K | 0.1184 ± 0.0048
363.57 K | 0.1177 ± 0.0047

CCOC(C)=O [ethyl acetate]
Conditions | thermal conductivity [W/m/K]
249.13 K | 0.1618 ± 0.0065
253.89 K | 0.1602 ± 0.0064
260.17 K | 0.1574 ± 0.0063
268.04 K | 0.154 ± 0.0062
274.35 K | 0.152 ± 0.0061
281.34 K | 0.1491 ± 0.006
285.31 K | 0.1472 ± 0.0059
290.42 K | 0.1451 ± 0.0058
295.44 K | 0.1429 ± 0.0058
298.52 K | 0.1414 ± 0.0057
303.53 K | 0.1396 ± 0.0056
308.44 K | 0.1378 ± 0.0055
313.45 K | 0.1361 ± 0.0055
318.4 K | 0.1346 ± 0.0054
323.25 K | 0.1324 ± 0.0053
328.39 K | 0.1308 ± 0.0053
333.37 K | 0.1288 ± 0.0052
338.34 K | 0.1273 ± 0.0051
343.27 K | 0.1257 ± 0.0051
345.43 K | 0.1245 ± 0.005
348.46 K | 0.1239 ± 0.005

O [water]
Conditions | thermal conductivity [W/m/K]
299.55 K | 0.613 ± 0.026
309.83 K | 0.6313 ± 0.026
319.56 K | 0.6399 ± 0.027
332.53 K | 0.6555 ± 0.028
339.33 K | 0.657 ± 0.028
349.41 K | 0.6723 ± 0.028
